The conditions of data set [1]: octanol/water.
Data set [2] in a line: physchem. Particulars: octanol/water.
Data set [3] can be described thus: physchem.
For data set [4] the following is noted: octanol/water. The source holds these as a separate data set.
The conditions of data set [5]: octanol/water. This is another data set of the same source.
For data set [6] the following is noted: octanol/water. This is another data set of the same source.
For data set [7] the following is noted: octanol/water. The source holds these as a separate data set.

As for `Brc1ccccc1` [BROMOBENZENE], the pKHB is given as -0.84. Besides, the logP (commonly the decadic logarithm of the partition coefficient of the neutral form, usually between octanol and water) in data set [1] turned out to be 3.08.

In the case of `O=C(O)COc1cccc(C(F)(F)F)c1`, the logP in “physchem [2]” was 2.33. Turning to `CC(C)CC(N)=O` [ISOVALERAMIDE], the logP in “physchem [3]” (oil/water) was -1.64. As to `CNC(=O)Oc1cccc(C#N)c1`, in “physchem [2]”, the logP amounted to 0.98.

In “physchem [2]”, `NS(=O)(=O)c1ccc([N+](=O)[O-])c(C(F)(F)F)c1` yielded a logP of 1.73. `CCc1cccc(OCC(=O)O)c1` registered a logP in “physchem [2]” of 2.23. On the same count and under the same terms, next, `Cc1ccc(S(N)(=O)=O)cc1` [P-TOLUENESULFONAMIDE]: 0.82; `CCOc1ccccc1OC(=O)NC`: 1.24. As for `CCCCC(=O)O` [VALERIC ACID], in the data set “physchem [3]” (oil/water), the logP was determined as 0.48.

On to `COc1ccc(S(N)(=O)=O)cc1`, for which the logP in the data set “physchem [2]” was determined as 0.47. For the compound `CCC(=O)O` [PROPIONIC ACID], the logP in data set [4] is on record as -0.8. `Cc1cccc(S(N)(=O)=O)c1` gave a logP in the data set “physchem [2]” of 0.85. Turning to `Oc1cccc(F)c1`, in “physchem [2]”, the logP turned out to be 1.93. `C1N2CN3CN1CN(C2)C3` [METHENAMINE] displayed a logP in “physchem [3]” (oil/water) of -3.68.

Consider `CCOc1ccc(OC(=O)NC)cc1`, for which the logP in “physchem [2]” was 1.64. As to `NS(=O)(=O)c1cccc(Cl)c1`, the logP in “physchem [2]” worked out at 1.29.

Regarding `CNC(=O)Oc1cccc(OC)c1`, in the data set “physchem [2]”, the logP was found to be 1.3.

Compound `NS(=O)(=O)c1ccc(Cl)cc1` [P-CHLOROBENZENESULFONAMIDE] gave a logP in “physchem [2]” of 0.84. On the same count and under the same terms, next, `CNC(=O)Oc1ccc(I)cc1`: 2.46. `CCCCCC(=O)O` [HEXANOATE] returned a logP in data set [4] of 0.83.

On to `COc1ccc(O)cc1` [MEQUINOL], for which, in “physchem [2]”, the logP is 1.34. In turn, `CC1OC(C)OC(C)O1` (stereo not drawn) showed a logP in “physchem [3]” (oil/water) of 0.28. For the compound `OCCO` [ETHYLENE GLYCOL], the values for the logP (in data set [5]; in the data set “physchem [3]” (octanol/water)) were -2.28 and -3.31, respectively.

As to `CNC(=O)Oc1ccc(C#N)cc1` [4-CYANOPHENYL METHYLCARBAMATE], the logP in “physchem [2]” was found to be 0.95. In turn, `Clc1ccccc1` [CHLOROBENZENE] came in with a pKHB of -0.8. The logP in data set [1] was found to be 2.98. In “physchem [2]”, `Oc1cccc(I)c1` had a logP of 2.93. On to `COP(=O)(OC)Oc1ccccc1`, for which the pKHB is listed as 2.21. For the same compound, the logP in the data set “physchem [2]” stood at 1.22.

Turning to `CN(C)c1ccccc1`, the pKHB was 0.45. Besides, the logP in data set [1] came out at 2.38. The compound `CCC(N)=O` [PROPIONAMIDE] displayed a logP in the data set “physchem [3]” (oil/water) of -2.44. In the case of `CS(=O)(=O)c1ccccc1` [METHYLPHENYLSULFONE], the pKHB turned out to be 1.05. In addition, the logP in the data set “physchem [2]” came to 0.47. In the data set “physchem [2]”, `Oc1ccc(I)cc1` displayed a logP of 2.91.

As for `CNC(=O)Oc1cccc(Br)c1`, the log partition coefficient (logP) in the data set “physchem [2]” was 2.25. In “physchem [2]”, `NS(=O)(=O)c1cccc([N+](=O)[O-])c1` yielded a logP of 0.55.

Regarding `Oc1ccccc1` [PHENOL], the logP in data set [1] was -0.89; in data set [6], 0.36; in data set [7], 1.3. In the data set “physchem [3]” (oil/water), `CCCC(N)=O` [BUTYRAMIDE] showed a logP of -2.02. Consider `CNC(=O)Oc1cccc(C)c1` [METOLCARB], for which the logP in the data set “physchem [2]” was 1.7. Same read-out and setting: the result for `CNC(=O)Oc1ccc(C(C)C)cc1` reads 2.8; that for `CNC(=O)Oc1ccccc1OC(C)C` [PROPOXUR], 1.52; that for `CNC(=O)Oc1cccc(C(C)=O)c1`, 0.9.

Compound `COc1cccc(O)c1` [1-hydroxy-3-methoxybenzene] showed a logP in “physchem [2]” of 1.58.

As to `CC(=O)Nc1cccc(OCC(=O)O)c1`, in “physchem [2]”, the logP worked out at 0.47. Still for that read-out and setting: the result for `CNC(=O)Oc1ccc([N+](=O)[O-])cc1` [4-NITROPHENYL METHYLCARBAMATE] reads 1.46. The compound `CC(O)CO` (stereo not drawn) [PROPYLENE GLYCOL] returned a logP in the data set “physchem [3]” (oil/water) of -2.77. The compound `CCOc1ccccc1` [PHENETOLE] registered a pKHB of 0.22. This compound also registered a logP in “physchem [2]” of 2.51. In “physchem [3]” (oil/water), `O=C1CCC(=O)N1` [SUCCINIMIDE] yielded a logP of -2.31. Turning to `CS(=O)(=O)c1cccc(OCC(=O)O)c1`, the logP in the data set “physchem [2]” was found to be 0. `OCCCCO` [1,4-BUTANEDIOL]: the logP in data set [5] is -1.72; in the data set “physchem [3]” (octanol/water) it was -2.68. As to `CNC(=O)Oc1ccccc1C#N`, in the data set “physchem [2]”, the logP is 0.86. In the data set “physchem [3]” (oil/water), `CC(=O)OCC(COC(C)=O)OC(C)=O` [TRIACETIN] registered a logP of -0.36. `Cc1cccc(O)c1` [METACRESOL] registered a logP in the data set “physchem [2]” of 2.02. Compound `NCc1ccccc1` [BENZYLAMINE] returned a logP in data set [1] of -0.15. With `O=C(O)COc1cccc(C(=O)O)c1`, the log partition coefficient (logP) in “physchem [2]” was determined as 1.11. Still for that read-out and setting: next, `NS(=O)(=O)c1ccc([N+](=O)[O-])cc1`: 0.64. Regarding `Nc1ccccc1` [ANILINE], the logP in data set [1] is -0.05. `CCOC(C)=O` [ETHYL ACETATE] returned a logP in “physchem [3]” (oil/water) of 0.4.

Compound `O=Cc1ccccc1` [BENZALDEHYDE] came in with a pKHB of 0.8. Besides, in data set [1], the logP was found to be 1.11. For `CC(=O)c1ccccc1` [ACETOPHENONE] the same measures were 1.13 and 1.14. `CNC(=O)Oc1cccc([N+](=O)[O-])c1`: the logP in the data set “physchem [2]” came out at 1.39. As to `CC(C)=O` [ACETONE], the logP in the data set “physchem [3]” (oil/water) is -0.7. With `COc1ccccc1` [ANISOLE], the pKHB amounted to 0.02. Regarding `CNC(=O)Oc1ccc(C(C)=O)cc1`, the lipophilicity (logP) in the data set “physchem [2]” worked out at 1.01. In turn, `CCOCC` [ETHER] gave a logP in the data set “physchem [3]” (oil/water) of 0.38. The compound `CNC(=O)Oc1ccccc1I` yielded a logP in the data set “physchem [2]” of 1.96. Compound `CC(O)C(C)O` (stereo not drawn) came in with a logP in the data set “physchem [3]” (oil/water) of -2.47. `CNC(=O)Oc1ccccc1OC` came in with a logP in the data set “physchem [2]” of 0.81. `CCOC(N)=O` gave a logP in the data set “physchem [3]” (oil/water) of -1.13. In “physchem [2]”, `COc1cccc(OCC(=O)O)c1` displayed a logP of 1.38.

`COC(N)=O` [METHYL CARBAMATE] yielded a logP in “physchem [3]” (oil/water) of -1.6. `Oc1cccc(Br)c1` registered a logP in the data set “physchem [2]” of 2.63. Still for that read-out and setting: the result for `O=C(O)Cc1ccccc1` [PHENYLACETIC ACID] reads 1.41; that for `NS(=O)(=O)c1ccc(Br)cc1`, 1.36.

As for `Cc1ccccc1` [TOLUENE], the pKHB is listed as -0.29. For `O=C(O)COc1ccc(O)cc1`, the logP in “physchem [2]” was determined as 0.65. As to `CC(=O)N(C)c1ccccc1`, the pKHB was 2. This compound gave a logP in data set [1] of -0.4. The log partition coefficient (logP) in “physchem [2]” amounted to 1.12. Take `CN(C)C(=O)c1ccccc1`: the pKHB was determined as 2.22. In “physchem [2]”, this compound displayed a logP of 0.62. In the case of `NS(=O)(=O)c1ccccc1` [BENZENESULFONAMIDE], in the data set “physchem [2]”, the logP turned out to be 0.31. For the compound `CNC(=O)Oc1cccc(C=O)c1`, the logP in “physchem [2]” is 0.92. The compound `CNC(=O)Oc1cccc(C(C)C)c1` gave a logP in “physchem [2]” of 2.63. In turn, `N#Cc1ccccc1` [BENZONITRILE] registered a pKHB of 0.79. The same compound returned a logP in data set [1] of 0.96. In the data set “physchem [2]”, this compound showed a logP of 1.56.

Regarding `CNC(=O)Oc1cccc(N(C)C)c1`, in the data set “physchem [2]”, the logP worked out at 1.43. Regarding `OCc1ccccc1` [BENZYL ALCOHOL], in data set [1], the logP is -0.76. `O=C(O)COc1ccc(F)cc1`: the logP in the data set “physchem [2]” is 1.41.

Compound `CNc1ccc(S(N)(=O)=O)cc1` showed a logP in the data set “physchem [2]” of 0.08.

In the case of `CNC(=O)Oc1cccc(Cl)c1`, the logP in the data set “physchem [2]” stood at 2.03.

Turning to `O=C(O)COc1ccccc1`, the logP in “physchem [2]” is 1.26. Turning to `CCc1ccccc1` [ETHYLBENZENE], the pKHB is -0.34. Take `O=[N+]([O-])c1ccccc1` [NITROBENZENE]: the logP stood at 1.49 in data set [1] and 2.93 in data set [6]. In the case of `N#Cc1ccc(S(N)(=O)=O)cc1`, the logP in “physchem [2]” came out at 0.23. `Cc1ccc(OCC(=O)O)cc1`: the logP in the data set “physchem [2]” was 1.78. `OCCCCCCO` [1,6-HEXANEDIOL]: the logP in the data set “physchem [3]” (oil/water) was -2.17.

In turn, `CC(=O)c1ccc(S(N)(=O)=O)cc1` showed a logP in the data set “physchem [2]” of 0.2.

For `CNC(=O)Oc1ccc(C=O)cc1`, the logP in the data set “physchem [2]” worked out at 0.99. With `O=C(O)COc1cccc([N+](=O)[O-])c1`, in the data set “physchem [2]”, the logP was 1.37. Regarding `CNC(=O)Oc1ccccc1[N+](=O)[O-]`, in “physchem [2]”, the logP came to 1.02. The same measure, in the same setting: the result for `O=C(O)COc1cccc(Cl)c1` reads 2.02. Consider `CCCCCO` [1-PENTANOL], for which, in data set [4], the logP was determined as 0.36. The compound `C[C@H](O)CCO` [1,3-BUTANEDIOL] came in with a logP in the data set “physchem [3]” (oil/water) of -2.37. Compound `CN(C)Cc1ccccc1` registered a pKHB of 1.56. The logP in data set [1] was 1.44. In the data set “physchem [2]”, this compound gave a logP of 1.98.

Values taken from ChEMBL document CHEMBL3244276, “Hydrogen-bonding parameter and its significance in quantitative structure--activity studies” (J Med Chem, 1977).
